Measured values: ChEMBL document CHEMBL4814020, “Nonbisphosphonate inhibitors of Plasmodium falciparum FPPS/GGPPS” (Bioorg Med Chem Lett, 2021)
Values after ≈ are worked out from the molar mass of the structure shown.

What was measured:
[1] = Inhibition of recombinant Plasmodium falciparum N-terminal His6-tagged GGPPS expressed in Escherichia coli expression system assessed as reduction in pyrophosphate release using GPP as substrate incubated for 30 mins followed by substrate addition by PPiLight detection reagent based luminescence assay
[2] = target: T1, Farnesyl pyrophosphate synthase (Homo sapiens, UniProt P14324); test: Inhibition of recombinant human N-terminal His6-tagged FPPS assessed as reduction in pyrophosphate release using GPP as substrate upto 200 uM incubated for 30 mins followed by substrate addition by PPiLight detection reagent based luminescence assay; settings: 0.5 h
T1 sequence (P14324 whole entry): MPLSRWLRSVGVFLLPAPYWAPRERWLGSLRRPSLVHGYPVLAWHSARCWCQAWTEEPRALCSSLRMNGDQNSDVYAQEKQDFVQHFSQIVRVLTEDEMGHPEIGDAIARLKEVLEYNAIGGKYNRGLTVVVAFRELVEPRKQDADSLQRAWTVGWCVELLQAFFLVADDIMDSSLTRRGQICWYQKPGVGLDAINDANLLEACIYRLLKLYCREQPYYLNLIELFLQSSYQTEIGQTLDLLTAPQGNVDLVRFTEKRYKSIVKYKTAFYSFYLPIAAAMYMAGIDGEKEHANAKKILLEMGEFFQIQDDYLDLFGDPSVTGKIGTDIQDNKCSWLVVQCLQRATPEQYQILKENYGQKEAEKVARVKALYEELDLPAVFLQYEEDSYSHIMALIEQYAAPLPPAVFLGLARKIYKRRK

[3] = target: T2, Geranylgeranyl pyrophosphate synthase (Homo sapiens, UniProt O95749); test: Inhibition of recombinant human N-terminal His6-tagged GGPPS assessed as reduction in pyrophosphate release using GPP as substrate upto 200 uM incubated for 30 mins followed by substrate addition by PPiLight detection reagent based luminescence assay; settings: 0.5 h
T2 sequence (O95749 whole entry): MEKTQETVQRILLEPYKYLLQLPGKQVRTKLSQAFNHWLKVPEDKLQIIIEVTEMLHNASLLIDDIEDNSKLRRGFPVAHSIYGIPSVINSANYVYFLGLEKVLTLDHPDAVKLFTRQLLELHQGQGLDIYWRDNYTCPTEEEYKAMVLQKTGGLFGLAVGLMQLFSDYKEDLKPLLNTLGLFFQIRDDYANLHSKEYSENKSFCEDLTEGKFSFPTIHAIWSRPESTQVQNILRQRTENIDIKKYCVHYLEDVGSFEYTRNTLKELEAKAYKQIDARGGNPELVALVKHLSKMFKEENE

[4] = Metabolic stability in mouse liver microsomes assessed as intrinsic clearance; type: ADME, Microsome; settings: read-out: CLH
[5] = system: MDR1; test: Apparent permeability in pig LLC-PK1 cells expressing MDR1 measured upto 360 mins; type: ADME, cell-based, Sus scrofa
[6] = Lipophilicity, logD of the compound in octanol-buffer at pH 7.4 measured after 18 hrs under shaking condition by reverse phase HPLC-MS analysis; type: physicochemical
[7] = system: MDR1; test: Efflux ratio of apparent permeability in pig LLC-PK1 cells expressing MDR1 measured upto 360 mins; type: ADME, cell-based, Sus scrofa
[8] = system: Plasmodium falciparum; test: Antimalarial activity against Plasmodium falciparum infected in human RBC assessed as reduction in parasite growth measured after 72 hrs by flow cytometry analysis; type: functional, organism-based; settings: Erythrocyte
[9] = Metabolic stability in human liver microsomes assessed as intrinsic clearance; type: ADME, Microsome; settings: read-out: CLH
[10] = Kinetic solubility of compound; type: physicochemical; settings: read-out: Kinetic_solubility
[11] = Fraction unbound in iv dosed C57BL/6J mouse; type: ADME, organism-based; settings: in vivo
[12] = AUC in iv dosed C57BL/6J mouse; type: ADME, organism-based; settings: in vivo
[13] = MRT in iv dosed C57BL/6J mouse; type: ADME, organism-based; settings: in vivo
[14] = Clearance in iv dosed C57BL/6J mouse; type: ADME, organism-based; settings: in vivo
[15] = Volume of distribution in iv dosed C57BL/6J mouse; type: ADME, organism-based; settings: in vivo

IC50 [1] [nM]	inhibition (INH) [2]	inhibition (INH) [3]	Compound	further results
1800	Not Active	Not Active	O=C(NCCCN1CCCCCC1)c1cc(-c2ccccc2)on1	
1610	Not Active	Not Active	O=C(CCCN1CCCCC1)Nc1cnc(-c2ccc(F)cc2)s1	microsomal CLint [4]: 14 µL/min/mg; Papp at 6 h [5]: 10.5 ×10⁻⁶ cm/s; logD at 18 h [6]: 1.81; efflux ratio at 6 h [7]: 1; IC50 [8]: 73 nM; microsomal CLint [9]: 15 µL/min/mg; solubility kinetic [10]: > 94 µg/mL
1030	Not Active	Not Active	Cc1nc(C(=O)NCCCN2CCCCCC2)sc1-c1ccccc1	
1800	Not Active	Not Active	O=C(CCCN1CCCCCC1)Nc1nnc(-c2ccc(F)cc2)s1	microsomal CLint [4]: < 1 µL/min/mg; Papp at 6 h [5]: 12.6 ×10⁻⁶ cm/s; logD at 18 h [6]: 1.97; efflux ratio at 6 h [7]: 0.9; IC50 [8]: 72 nM; microsomal CLint [9]: 39 µL/min/mg; solubility kinetic [10]: > 91 µg/mL
12000	Not Active	Not Active	O=C(NCCCN1CCOCC1)c1cnc(-c2ccccc2)s1	
2790	Not Active	Not Active	O=C(NCCCN1CCC(F)CC1)c1cnc(-c2ccccc2)s1	
800	Not Active	Not Active	O=C(NCCCN1CCCCCC1)c1cnc(-c2ccccc2)s1	
2150	Not Active	Not Active	O=C(NCCCN1CCCCC1)c1cnc(-c2ccccc2)s1	
13000	Not Active	Not Active	Cn1c(-c2ccccc2)cnc1C(=O)NCCCN1CCCCCC1	
1040	Not Active	Not Active	O=C(NCCCN1CCCCCC1)c1nnc(-c2ccccc2)s1	
1420	Not Active	Not Active	O=C(CCCN1CCCCCC1)Nc1cnc(-c2cccc(F)c2)s1	
1330	Not Active	Not Active	O=C(CCCN1CCCCCC1)Nc1cnc(-c2ccc(F)cc2)s1	microsomal CLint [4]: 18 µL/min/mg; Papp at 6 h [5]: 9.5 ×10⁻⁶ cm/s; logD at 18 h [6]: 1.93; efflux ratio at 6 h [7]: 1.1; IC50 [8]: 37 nM; microsomal CLint [9]: 29 µL/min/mg; solubility kinetic [10]: > 97 µg/mL
1050	Not Active	Not Active	O=C(CCCN1CCCCCC1)Nc1cnc(-c2ccc(F)c(F)c2)s1	microsomal CLint [4]: 10 µL/min/mg; Papp at 6 h [5]: 5.2 ×10⁻⁶ cm/s; logD at 18 h [6]: 2.3; efflux ratio at 6 h [7]: 1.1; IC50 [8]: 40 nM; microsomal CLint [9]: 42 µL/min/mg; solubility kinetic [10]: > 94 µg/mL
1830	Not Active	Not Active	O=C(CCCN1CCCCCC1)Nc1cnc(-c2ccccc2)s1	
> 10000	Not Active	Not Active	O=C(NCCCN1CCCCCC1=O)c1cnc(-c2ccccc2)s1	
6060	Not Active	Not Active	COC1CCN(CCCNC(=O)c2cnc(-c3ccccc3)s2)CC1	
2480	Not Active	Not Active	O=C(NCCCN1CCCCCC1)c1cc(-c2ccccc2)cs1	

IC50 [1] [nM]	inhibition (INH) [2]	inhibition (INH) [3]	Compound	further results
8120	Not Active	Not Active	O=C(NCCCN1CCCCCC1)c1nnc(-c2ccccc2)o1	
960	Not Active	Not Active	O=C(NCCCN1CCCCCC1)c1ncc(-c2ccccc2)s1	
> 10000	Not Active	Not Active	CC1CCCN1CCCNC(=O)c1cnc(-c2ccccc2)s1 (stereo not drawn)	
1340	Not Active	Not Active	O=C(NCCCN1CCCCCC1)c1ccc(-c2ccccc2)s1	
2380	Not Active	Not Active	O=C(NCCCN1CCCCCC1)c1ncc(-c2ccccc2)o1	
950	Not Active	Not Active	O=C(CCCN1CCCCCC1)Nc1cnc(-c2ccccc2F)s1	
3790	Not Active	Not Active	Cc1nc(-c2ccccc2)sc1C(=O)NCCCN1CCCCCC1	
3150	Not Active	Not Active	CC1CCN(CCCNC(=O)c2cnc(-c3ccccc3)s2)C1 (stereo not drawn)	
3100	Not Active	Not Active	O=C(NCCCN1CCCC1)c1cnc(-c2ccccc2)s1	
6080	Not Active	Not Active	O=C(NCCCN1CCCCCC1)c1cc(-c2ccccc2)ccn1	
930	Not Active	Not Active	O=C(CCCN1CCCCCC1)Nc1cnc(-c2ccc(F)cc2F)s1	microsomal CLint [4]: 24 µL/min/mg; Papp at 6 h [5]: 8.7 ×10⁻⁶ cm/s; logD at 18 h [6]: 2.11; efflux ratio at 6 h [7]: 0.8; IC50 [8]: 38 nM; microsomal CLint [9]: 42 µL/min/mg; solubility kinetic [10]: > 97 µg/mL
500	Not Active	Not Active	COc1cc(-c2ncc(NC(=O)CCCN3CCCCCC3)s2)ccc1F	
2030	Not Active	Not Active	Cc1c(C(=O)NCCCN2CCCCCC2)noc1-c1ccccc1	
1940	Not Active	Not Active	O=C(CCCN1CCCOCC1)Nc1cnc(-c2ccc(F)cc2F)s1	microsomal CLint [4]: 22 µL/min/mg; fraction unbound [11]: 0.09; Papp at 6 h [5]: 9.2 ×10⁻⁶ cm/s; logD at 18 h [6]: 2.41; efflux ratio at 6 h [7]: 1.5; IC50 [8]: 74 nM; AUC [12]: 65.8 ng·h/mL; MRT [13]: 2.63 h; clearance [14]: 25.3 mL/min/kg; microsomal CLint [9]: < 1 µL/min/mg; Vd [15]: 4 L/kg; solubility kinetic [10]: > 100 µg/mL
820	Not Active	Not Active	Cn1c(=O)c2cc(C(=O)NCCCN3CCCCCC3)sc2c2ccccc21	microsomal CLint [4]: 483 µL/min/mg; Papp at 6 h [5]: 4.1 ×10⁻⁶ cm/s; logD at 18 h [6]: 1.89; efflux ratio at 6 h [7]: 6.8; IC50 [8]: 90 nM; microsomal CLint [9]: < 1 µL/min/mg; solubility kinetic [10]: 69 µg/mL (≈ 174 µM)
6000	Not Active	Not Active	CN(C)CCCNC(=O)c1cnc(-c2ccccc2)s1	
